# Laboratory results as given in PubChem BioAssay AID264 (DTP/NCI, 2004).
# Where “and” joins values, the source holds several entries; their conditions need not be identical. Equal entries are not always repeated. Inconclusive results are not listed.
# Tested on: nude mice, LX-1 lung xenograft intrarenal, tumor weight T/C
# Assay: NCI In Vivo Anticancer Drug Screen. Data for tumor model Human Lung LX-1 Xenograft (intrarenal inoculation) in NU/NU Swiss (nude) mice
# Conditions: endpoint: mean tumor weight change, higher = larger tumour
# Summary of the method: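 Compound-treated mice carrying transplanted tumors were compared with vehicle-treated controls. Tumor size was the measured end point, and the value is the treated-group measurement divided by the control-group measurement (T/C).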
# [1] = dose: 0.5 mg/kg/injection, schedule: Q01DX010 (sc), vehicle: saline
smiles,measurement,setting,value
CN(Cc1cnc2nc(N)nc(N)c2n1)c1ccc(C(=O)N[C@@H](CCC(=O)O)C(=O)O)cc1,T/C,"dose: 0.5 mg/kg/injection, schedule: Q01DX010 (sc), vehicle: sodium bicarbonate",74 % of control
same,T/C,"dose: 1.0 mg/kg/injection, schedule: Q01DX010 (sc), vehicle: sodium bicarbonate",87 % of control
same,T/C,"dose: 2.0 mg/kg/injection, schedule: Q01DX010 (sc), vehicle: sodium bicarbonate",18 % of control
COc1ccc([I+]c2cccc(Cl)c2)cc1Cl,T/C,"dose: 75.0 mg/kg/injection, schedule: Q04DX003 (sc), vehicle: saline with Tween-80",93 % of control
same,T/C,"dose: 150.0 mg/kg/injection, schedule: Q04DX003 (sc), vehicle: saline with Tween-80",86 % of control
same,T/C,"dose: 300.0 mg/kg/injection, schedule: Q04DX003 (sc), vehicle: saline with Tween-80",85 % of control
same,T/C,"dose: 600.0 mg/kg/injection, schedule: Q04DX003 (sc), vehicle: saline with Tween-80",74 % of control
same,T/C,"dose: 1200.0 mg/kg/injection, schedule: Q04DX003 (sc), vehicle: saline with Tween-80",83 % of control
N#C[Se-].c1ccc([Te+](c2ccccc2)c2ccccc2)cc1,T/C,"dose: 6.25 mg/kg/injection, schedule: Q04DX003 (sc), vehicle: Klucel (hydroxypropylcellulose) (HPC)",75 % of control
same,T/C,"dose: 25.0 mg/kg/injection, schedule: Q04DX003 (sc), vehicle: Klucel (hydroxypropylcellulose) (HPC)",82 % of control
C1CN2CCC1CC2,T/C,"dose: 4.69 mg/kg/injection, schedule: Q04DX003 (sc), vehicle: saline with Tween-80",96 % of control
same,T/C,"dose: 9.38 mg/kg/injection, schedule: Q04DX003 (sc), vehicle: saline with Tween-80",73 % of control
same,T/C,"dose: 18.75 mg/kg/injection, schedule: Q04DX003 (sc), vehicle: saline with Tween-80",68 % of control
NC(=O)c1cn(C2OC(CO)C(O)C2O)c2ncnc(N)c12 (stereo not drawn),T/C,[1],74 % of control
same,T/C,"dose: 1.0 mg/kg/injection, schedule: Q01DX010 (sc), vehicle: saline",88 % of control
same,T/C,"dose: 2.0 mg/kg/injection, schedule: Q01DX010 (sc), vehicle: saline",27 % of control
Nc1ccccc1N,T/C,"dose: 25.0 mg/kg/injection, schedule: Q01DX010 (sc), vehicle: Klucel (hydroxypropylcellulose) (HPC)",55 % of control
same,T/C,"dose: 100.0 mg/kg/injection, schedule: Q01DX010 (sc), vehicle: Klucel (hydroxypropylcellulose) (HPC)",66 % of control and 75 % of control
same,T/C,"dose: 200.0 mg/kg/injection, schedule: Q01DX010 (sc), vehicle: Klucel (hydroxypropylcellulose) (HPC)",83 % of control
C[N+](C)(C)c1ncnc2nc[nH]c12,T/C,"dose: 50.0 mg/kg/injection, schedule: Q01DX010 (sc), vehicle: saline",78 % of control
same,T/C,"dose: 100.0 mg/kg/injection, schedule: Q01DX010 (sc), vehicle: saline",116 % of control
same,T/C,"dose: 200.0 mg/kg/injection, schedule: Q01DX010 (sc), vehicle: saline",58 % of control
CC(C)[NH-].CC(C)[NH-].O.O.[Cl][Pt+2][Cl],T/C,"dose: 3.12 mg/kg/injection, schedule: Q01DX010 (sc), vehicle: dextrose",62 % of control
same,T/C,"dose: 6.25 mg/kg/injection, schedule: Q01DX010 (sc), vehicle: dextrose",60 % of control
same,T/C,"dose: 12.5 mg/kg/injection, schedule: Q01DX010 (sc), vehicle: dextrose",53 % of control
same,T/C,"dose: 25.0 mg/kg/injection, schedule: Q01DX010 (sc), vehicle: dextrose",64 % of control
CC[C@]1(O)C[C@H]2CN(CCc3c([nH]c4ccccc34)[C@@](C(=O)OC)(c3cc4c(cc3OC)N(C=O)[C@H]3[C@@](O)(C(=O)OC)[C@H](OC(C)=O)[C@]5(CC)C=CCN6CC[C@]43[C@@H]65)C2)C1,T/C,"dose: 0.13 mg/kg/injection, schedule: Q01DX010 (sc), vehicle: saline",69 % of control
same,T/C,"dose: 0.25 mg/kg/injection, schedule: Q01DX010 (sc), vehicle: saline",102 % of control
same,T/C,[1],1 % of control
CNc1nc2c(N)ncnc2n1C1OC(CO)C(O)C1O (stereo not drawn),T/C,"dose: 25.0 mg/kg/injection, schedule: Q04DX003 (sc), vehicle: saline",103 % of control
same,T/C,"dose: 50.0 mg/kg/injection, schedule: Q04DX003 (sc), vehicle: saline",82 % of control
same,T/C,"dose: 100.0 mg/kg/injection, schedule: Q04DX003 (sc), vehicle: saline",57 % of control
O=CN(SSN(C=O)C1CCCCC1)C1CCCCC1,T/C,"dose: 50.0 mg/kg/injection, schedule: Q01DX010 (sc), vehicle: saline with Tween-80",395 % of control
same,T/C,"dose: 100.0 mg/kg/injection, schedule: Q01DX010 (sc), vehicle: saline with Tween-80",104 % of control
same,T/C,"dose: 200.0 mg/kg/injection, schedule: Q01DX010 (sc), vehicle: saline with Tween-80",234 % of control
same,T/C,"dose: 400.0 mg/kg/injection, schedule: Q01DX010 (sc), vehicle: saline with Tween-80",97 % of control and 122 % of control
same,T/C,"dose: 800.0 mg/kg/injection, schedule: Q01DX010 (sc), vehicle: saline with Tween-80",48 % of control
same,T/C,"dose: 1600.0 mg/kg/injection, schedule: Q01DX010 (sc), vehicle: saline with Tween-80",54 % of control
